Measured values taken from ChEMBL document CHEMBL5380833 (J Med Chem, 2023).

Legend:
[1] = biological target: T1, Protein cereblon/Tyrosine-protein kinase ITK/TSK (Homo sapiens, UniProt Q08881+Q96SW2); assay: PROTAC activity at CRBN/ITK in human Jurkat cells assessed as maximum degradation at 0.01 to 10 uM by Western blot analysis relative to control; type: cell-based; settings: dose 0.01-10 µM
Target sequence in this assay (Q96SW2 whole entry, looked up, one chain of several): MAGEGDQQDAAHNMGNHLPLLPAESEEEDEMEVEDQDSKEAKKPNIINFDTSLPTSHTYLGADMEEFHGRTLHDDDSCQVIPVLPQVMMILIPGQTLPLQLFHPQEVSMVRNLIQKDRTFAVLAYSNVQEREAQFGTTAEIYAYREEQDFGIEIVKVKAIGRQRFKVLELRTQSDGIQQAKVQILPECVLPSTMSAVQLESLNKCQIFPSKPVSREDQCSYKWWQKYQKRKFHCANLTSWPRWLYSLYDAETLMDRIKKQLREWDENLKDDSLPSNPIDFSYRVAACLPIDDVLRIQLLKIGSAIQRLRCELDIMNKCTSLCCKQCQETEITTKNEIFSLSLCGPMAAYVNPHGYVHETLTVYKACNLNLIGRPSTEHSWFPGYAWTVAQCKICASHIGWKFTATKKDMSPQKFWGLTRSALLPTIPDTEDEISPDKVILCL

[2] = biological target: T1, Protein cereblon/Tyrosine-protein kinase ITK/TSK; assay: PROTAC activity at CRBN/ITK in human Jurkat cells assessed as induction of ITK degradation by Western blot analysis; type: cell-based
Target sequence in this assay (Q96SW2 whole entry, one chain of several): as the sequence (Q96SW2 whole entry, looked up, one chain of several) above

Interleukin-2 = Interleukin-2 (Homo sapiens, UniProt P60568); assay: Inhibition of IL-2 in human Jurkat T cells pretreated with compound for 16 hrs followed by anti-CD3 stimulation by ELISA analysis; type: cell-based
[3] = biological target: T2, Tyrosine-protein kinase ITK/TSK (Homo sapiens, UniProt Q08881); assay: Inhibition of ITK (unknown origin)
T2 sequence (Q08881 whole entry): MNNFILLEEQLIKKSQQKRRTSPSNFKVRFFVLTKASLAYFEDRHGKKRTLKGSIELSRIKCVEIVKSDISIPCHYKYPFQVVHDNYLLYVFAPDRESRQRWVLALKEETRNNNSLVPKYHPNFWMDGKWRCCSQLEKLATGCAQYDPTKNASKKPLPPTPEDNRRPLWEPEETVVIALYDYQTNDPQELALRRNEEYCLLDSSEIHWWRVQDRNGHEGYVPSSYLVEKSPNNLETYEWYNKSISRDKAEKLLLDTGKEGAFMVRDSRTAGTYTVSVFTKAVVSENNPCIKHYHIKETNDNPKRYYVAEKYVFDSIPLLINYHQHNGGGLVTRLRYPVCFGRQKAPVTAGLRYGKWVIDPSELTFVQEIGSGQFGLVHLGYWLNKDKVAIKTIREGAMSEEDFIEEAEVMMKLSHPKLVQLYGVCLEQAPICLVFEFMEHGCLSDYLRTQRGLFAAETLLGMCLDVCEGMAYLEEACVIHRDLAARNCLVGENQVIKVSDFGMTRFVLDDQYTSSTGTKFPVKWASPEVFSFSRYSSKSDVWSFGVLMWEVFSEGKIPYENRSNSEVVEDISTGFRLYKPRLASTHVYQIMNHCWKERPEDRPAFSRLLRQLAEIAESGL

Sequence of Interleukin-2 (P60568 whole entry): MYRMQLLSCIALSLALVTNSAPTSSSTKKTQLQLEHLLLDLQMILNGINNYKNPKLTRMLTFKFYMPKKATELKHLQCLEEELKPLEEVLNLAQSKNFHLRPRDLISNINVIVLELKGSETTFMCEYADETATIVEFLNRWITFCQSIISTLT

Structure (SMILES) | Emax [1] [%] | EC50 ([2]; read-out: EC50) [nM] | EC50 (Interleukin-2) [nM] | EC50 ([2]; jurkat) | IC50 [3] [nM]
CN(CCCCCCCCC(=O)Nc1ccc2c(c1)C(=O)N(C1CCC(=O)NC1=O)C2=O)CC[C@@H](c1ccccc1)n1cc(NC(=O)c2n[nH]c3c2CCC(C)(C)C3)cn1 (some centres not stated) | 93 | 5.5 |  |  | 
CN(CCOCCOCC(=O)Nc1cccc2c1C(=O)N(C1CCC(=O)NC1=O)C2=O)CC[C@@H](c1ccccc1)n1cc(NC(=O)c2n[nH]c3c2CCC(C)(C)C3)cn1 (some centres not stated) | 75 | 220 |  |  | 
COc1cc(C)c(Sc2cnc(NC(=O)c3ccc(CNC(C)C(C)(C)C)cc3)s2)cc1C(=O)N1CCN(C(C)=O)CC1 (configuration not stated) |  |  | 238 |  | 
CN(CCOCCOCCOCCOCC(=O)Nc1ccc2c(c1)C(=O)N(C1CCC(=O)NC1=O)C2=O)CC[C@@H](c1ccccc1)n1cc(NC(=O)c2n[nH]c3c2CCC(C)(C)C3)cn1 (some centres not stated) | 92 | 106 |  |  | 
CN(CCCCCCCCCCC(=O)Nc1ccc2c(c1)C(=O)N(C1CCC(=O)NC1=O)C2=O)CC[C@@H](c1ccccc1)n1cc(NC(=O)c2n[nH]c3c2CCC(C)(C)C3)cn1 (some centres not stated) | 82 | 75.4 |  |  | 
CN(CCOCCOCC(=O)Nc1ccc2c(c1)C(=O)N(C1CCC(=O)NC1=O)C2=O)CC[C@@H](c1ccccc1)n1cc(NC(=O)c2n[nH]c3c2CCC(C)(C)C3)cn1 (some centres not stated) | 95 | 26.7 |  |  | 
CC1(C)CCc2c(C(=O)Nc3cnn([C@@H](CCN4CCN(CCC5CN(c6ccc7c(c6)C(=O)N(C6CCC(=O)NC6=O)C7=O)C5)CC4)c4ccccc4)c3)n[nH]c2C1 (some centres not stated) | 90 | 142 |  |  | 
CN(CCOCCNC(=O)CNc1cccc2c1C(=O)N(C1CCC(=O)NC1=O)C2=O)CC[C@@H](c1ccccc1)n1cc(NC(=O)c2n[nH]c3c2CCC(C)(C)C3)cn1 (some centres not stated) | 99 | 32.7 |  |  | 
CN(CCOCCOCCOCC(=O)Nc1ccc2c(c1)C(=O)N(C1CCC(=O)NC1=O)C2=O)CC[C@@H](c1ccccc1)n1cc(NC(=O)c2n[nH]c3c2CCC(C)(C)C3)cn1 (some centres not stated) | 93 | 94.1 |  |  | 
CN(CCCCCCC(=O)Nc1ccc2c(c1)C(=O)N(C1CCC(=O)NC1=O)C2=O)CC[C@@H](c1ccccc1)n1cc(NC(=O)c2n[nH]c3c2CCC(C)(C)C3)cn1 (some centres not stated) | 90 | 9 |  |  | 
CN(CCCCC(=O)Nc1ccc2c(c1)C(=O)N(C1CCC(=O)NC1=O)C2=O)CC[C@@H](c1ccccc1)n1cc(NC(=O)c2n[nH]c3c2CCC(C)(C)C3)cn1 (some centres not stated) | 90 | 5.3 |  |  | 
CC1(C)CCc2c(C(=O)Nc3cnn([C@@H](CCN4CCN(CC5CCN(c6ccc7c(c6)C(=O)N(C6CCC(=O)NC6=O)C7=O)CC5)CC4)c4ccccc4)c3)n[nH]c2C1 (some centres not stated) | 90 | 29.3 |  |  | 
CN(CCOCCOCCOCCOCC(=O)Nc1cccc2c1C(=O)N(C1CCC(=O)NC1=O)C2=O)CC[C@@H](c1ccccc1)n1cc(NC(=O)c2n[nH]c3c2CCC(C)(C)C3)cn1 (some centres not stated) | 75 | 286 |  |  | 
CN(CCCCCC(=O)Nc1ccc2c(c1)C(=O)N(C1CCC(=O)N(C)C1=O)C2=O)CC[C@@H](c1ccccc1)n1cc(NC(=O)c2n[nH]c3c2CCC(C)(C)C3)cn1 (some centres not stated) |  |  |  | Not Active | 
CC1(C)CCc2c(C(=O)Nc3cnn([C@@H](CCN4CCN(CC5CN(c6ccc7c(c6)C(=O)N(C6CCC(=O)NC6=O)C7=O)C5)CC4)c4ccccc4)c3)n[nH]c2C1 (some centres not stated) | 85 | 10 |  |  | 
COc1cccc(-n2c(=O)c(C(=O)Nc3ccc(-c4nc(-c5ccnc(N6CC(OC)C6)c5)cnc4N)nc3)c(C)n2C)c1 |  |  |  |  | < 4
CN(CCOCCOCCNC(=O)CNc1cccc2c1C(=O)N(C1CCC(=O)NC1=O)C2=O)CC[C@@H](c1ccccc1)n1cc(NC(=O)c2n[nH]c3c2CCC(C)(C)C3)cn1 (some centres not stated) | 95 | 32.7 |  |  | 
CN(CCOCCOCCOCCNC(=O)CNc1cccc2c1C(=O)N(C1CCC(=O)NC1=O)C2=O)CC[C@@H](c1ccccc1)n1cc(NC(=O)c2n[nH]c3c2CCC(C)(C)C3)cn1 (some centres not stated) | 93 | 62.2 |  |  | 
CN(CCOCCC(=O)NC1=CCC2C(=O)N(C3CCC(=O)NC3=O)C(=O)C2=C1)CC[C@@H](c1ccccc1)n1cc(NC(=O)c2n[nH]c3c2CCC(C)(C)C3)cn1 (some centres not stated) | 97 | 15.6 |  |  | 
CN(CCOCCOCCOCC(=O)Nc1cccc2c1C(=O)N(C1CCC(=O)NC1=O)C2=O)CC[C@@H](c1ccccc1)n1cc(NC(=O)c2n[nH]c3c2CCC(C)(C)C3)cn1 (some centres not stated) | 75 | 353 |  |  | 
